Laboratory results published in patent US20090131354A1, “miR-126 REGULATED GENES AND PATHWAYS AS TARGETS FOR THERAPEUTIC INTERVENTION” (priority 2007, published 2009).
pIC50: −log10 of the molar value.

Tests used:
H460 lung cancer cells = assay: Alamar Blue proliferation assay, H460; format: cell-based, human; conditions: for % proliferation: relative to NC miRNA (100%)
Text: (§1) The inventors assessed the therapeutic effect of hsa-miR-126 for lung cancer by using 11 individual lung cancer cell lines. To measure cellular proliferation of lung cancer cells, the following non-small cell lung cancer (NSCLC) cells were used: cells derived from lung adenocarcinoma (A549, H1299, H522, H838, Calu-3, HCC827, HCC2935), cells derived from lung squamous cell carcinoma (H520, H226), cells derived from lung bronchioalveolar carcinoma (H1650), and cells derived from lung large cell carcinoma (H460). Synthetic hsa-miR-126 (Pre-miR™-hsa-miR-126, Ambion cat. no. AM17100) or negative control (NC) miRNA (Pre-miR™ microRNA Precursor Molecule-Negative Control #2; Ambion cat. no. AM17111) was delivered via lipid-based transfection into A549, H1299, H522, H838, Calu-3, HCC827, HCC2935, H520, H1650, and H460 cells, and via electroporation into H226 cells.
Lipid-based reverse transfections were carried out in triplicate according to a published protocol (Ovcharenko et al., 2005) and the following parameters: Cells (5,000-12,000 per 96 well), 0.1-0.2 μl Lipofectamine™ 2000 (cat. no. 11668-019, Invitrogen Corp., Carlsbad, Calif., USA) in 20 μl OptiMEM (Invitrogen), 30 nM final concentration of miRNA in 100 μl. Electroporation of H226 cells was carried out using the BioRad Gene Pulser Xcell™ instrument (BioRad Laboratories Inc., Hercules, Calif., USA) with the following settings: 5×10^6 cells with 5 μg miRNA in 200 μl OptiMEM (1.6 μM miRNA), square wave pulse at 250 V for 5 ms. Electroporated H226 cells were seeded at 7,000 cells per 96-well in a total volume of 100 μl. All cells except for Calu-3 cells were harvested 72 hours post transfection or electroporation for assessment of cellular proliferation. Calu-3 cells were harvested 10 days post transfection. Proliferation assays were performed using Alamar Blue (Invitrogen) following the manufacturer's instructions. As a control for inhibition of cellular proliferation, siRNA against the motor protein kinesin 11, also known as Eg5, was used. Eg5 is essential for cellular survival of most eukaryotic cells and a lack thereof leads to reduced cell proliferation and cell death (Weil et al., 2002). siEg5 was used in lipid-based transfection following the same experimental parameters that apply to miRNA. The inventors also used a DNA topoisomerase II inhibitor, etoposide, at a final concentration of 10 μM and 50 μM as an internal standard for the potency of miRNAs. Etoposide is an FDA-approved DNA topoisomerase II inhibitor in the treatment of lung cancer. […] Percent (%) proliferation values from the Alamar Blue assay were normalized to values from cells treated with negative control miRNA. […]

SCLC and NSCLC cells = conditions: various lung cancer cells; cited from earlier work
HCC827 lung cancer cells = assay: Alamar Blue proliferation assay, HCC827; format: cell-based, human; conditions: relative to NC miRNA (100%)
Text: as §1
Lipid-based reverse transfections were carried out in triplicate according to a published protocol (Ovcharenko et al., 2005) and the following parameters: Cells (5,000-12,000 per 96 well), 0.1-0.2 μl Lipofectamine™ 2000 (cat. no. 11668-019, Invitrogen Corp., Carlsbad, Calif., USA) in 20 μl OptiMEM (Invitrogen), 30 nM final concentration of miRNA in 100 μl. Electroporation of H226 cells was carried out using the BioRad Gene Pulser Xcell™ instrument (BioRad Laboratories Inc., Hercules, Calif., USA) with the following settings: 5×10^6 cells with 5 μg miRNA in 200 μl OptiMEM (1.6 μM miRNA), square wave pulse at 250 V for 5 ms. Electroporated H226 cells were seeded at 7,000 cells per 96-well in a total volume of 100 μl. All cells except for Calu-3 cells were harvested 72 hours post transfection or electroporation for assessment of cellular proliferation. Calu-3 cells were harvested 10 days post transfection. Proliferation assays were performed using Alamar Blue (Invitrogen) following the manufacturer's instructions. As a control for inhibition of cellular proliferation, siRNA against the motor protein kinesin 11, also known as Eg5, was used. […]

[1] = tested on: LNCaP prostate cancer cells; assay: Alamar Blue proliferation assay, LNCaP; format: cell-based, human; conditions: 30 nM, normalized to negative control miRNA (100% proliferation)
Text: (§2) The inventors assessed the therapeutic effect of hsa-miR-126 for prostate cancer by using 4 individual human prostate cancer cell lines. To measure cellular proliferation of prostate cancer cells, the following prostate cancer cell lines were used: PPC-1, derived from a bone metastasis; Du145, derived from a brain metastasis; RWPE2, derived from prostate cells immortalized by human papillomavirus 18 and transformed by the K-RAS oncogene; and LNCaP, derived from a lymph node metastasis (Stone et al., 1978; Horoszewicz et al., 1980; Brothman et al., 1991; Pretlow et al., 1993; Bello et al., 1997). PPC-1 and Du145 cells lack expression of the prostate-specific antigen (PSA) and are independent of androgen receptor (AR) signaling. In contrast, RWPE2 and LNCaP cells test positive for PSA and AR. Cells were transfected with synthetic hsa-miR-126 (Pre-miR™-hsa-miR-126, Ambion cat. no. AM 17100) or negative control miRNA (NC; Pre-miR™ microRNA Precursor Molecule-Negative Control #2; Ambion cat. no. AM17111) in a 96-well format using a lipid-based transfection reagent. […] Proliferation was assessed 4-7 days post-transfection using Alamar Blue™ (Invitrogen) following the manufacturer's instructions. […] Fluorescent light units (FLU) were measured after 3 hours, normalized to the control, and plotted as percent change in proliferation. […]

[2] = tested on: lung cancer (A549, HTB-57) or cervical cancer (HeLa) cells; conditions: A549, HTB-57, HeLa; miRNA given before the compound; cited from earlier work
[3] = tested on: Du145 prostate cancer cells; assay: Alamar Blue proliferation assay, Du145; format: cell-based, human; conditions: 30 nM, normalized to negative control miRNA (100% proliferation)
Text: as §2

Row | Molecule | % proliferation (H460 lung cancer cells; H460, 10 μM) [%] | % proliferation (H460 lung cancer cells; H460, 50 μM) [%] | pIC50 (SCLC and NSCLC cells) | % proliferation (HCC827 lung cancer cells; HCC827, 30 nM) [%] | % proliferation (HCC827 lung cancer cells; HCC827, 10 μM) [%] | % proliferation [1] [%] | effect on cell death induced by therapeutic compound (e.g., etoposide) [2] | reduction of proliferation (maximal inhibitory activity) (H460 lung cancer cells; H460, 30 nM) [%] | % proliferation (H460 lung cancer cells; H460, 30 nM, 72 h) [%] | % proliferation [3] [%] | % proliferation (HCC827 lung cancer cells; HCC827, 30 nM, 72 h) [%]
1 | COc1cc([C@@H]2c3cc4c(cc3[C@@H](O[C@@H]3O[C@@H]5CO[C@@H](C)O[C@H]5[C@H](O)[C@H]3O)[C@H]3COC(=O)[C@H]23)OCO4)cc(OC)c1O [etoposide] | 32.13 | 27.82 | 4.60 to 6.00 | 82.53 | 98.95 |  |  |  |  |  | 
2 | hsa-miR-126 (UCGUACCGUGAGUAAUAAUGC; synthetic pre-miR form, further chemistry not given here) [Synthetic hsa-miR-126 (Pre-miR™-hsa-miR-126, Ambion cat. no. AM17100)] |  |  |  |  |  | 80.59 | increased the capacity of the therapeutic compound to induce death | 71 | 29.09 | 63.41 | 84.31
